Assay results as given in patent US10118935B2, “Melampomagnolide B dimers” (priority 2014, dated 2018).

Columns and labels:
[1] = system: ACHN; assay: NCI 60 cell line five dose, Renal Cancer
[2] = system: CAKI-1; assay: NCI 60 cell line five dose, Renal Cancer
[3] = system: TK-10; assay: NCI 60 cell line five dose, Renal Cancer
[4] = system: UO-31; assay: NCI 60 cell line five dose, Renal Cancer
[5] = system: MCF7; assay: NCI 60 cell line five dose, Breast Cancer
[6] = system: T-47D; assay: NCI 60 cell line five dose, Breast Cancer
[7] = system: OVCAR-3; assay: NCI 60 cell line five dose, Ovarian Cancer
[8] = system: SK-OV-3; assay: NCI 60 cell line five dose, Ovarian Cancer
[9] = system: HOP-92; assay: NCI 60 cell line five dose, Non-Small Cell Lung Cancer
[10] = system: NCI-H322M; assay: as above
[11] = system: NCI-H460; assay: as above
[12] = system: NCI-H522; assay: as above

For C=C1C(=O)O[C@H]2[C@H]1CC/C(COC(=O)NCCCCNC(=O)OC/C1=C/CC[C@@]3(C)O[C@H]3[C@H]3OC(=O)C(=C)[C@@H]3CC1)=C\CC[C@@]1(C)O[C@@H]21 [JVM 3-54, bis(((1aR,7aS,10aS,10bS,E)-1a-Methyl-8-methylene-9-oxo-1a,2,3,6,7,7a,8,9,10a,10b-decahydrooxireno[2′,3′:9,10]cyclodeca[1,2-b]furan-5-yl)methyl)butane-1,4-diyldicarbamate], the “Percent Growth” value ([1]; Log10 Concentration −8.0) was 100%, the CC50 ([1]; read-out: LC50) was 39.8 µM and the GI50 [2] was 10.8 µM. For the same molecule, the TGI [2] was 23 µM, the “Percent Growth” value ([2]; Log10 Concentration −4.0) was −97% and the “Percent Growth” value ([2]; Log10 Concentration −5.0) was 55%. The “Percent Growth” value ([2]; Log10 Concentration −6.0) was 91%, the “Percent Growth” value ([2]; Log10 Concentration −7.0) was 90% and the “Percent Growth” value ([2]; Log10 Concentration −8.0) was 93%. The CC50 ([2]; read-out: LC50) was 49.1 µM, the GI50 [3] was 1610 nM and the TGI [3] was 4.12 µM. For the same molecule, the “Percent Growth” value ([3]; Log10 Concentration −4.0) was −99%, the “Percent Growth” value ([3]; Log10 Concentration −5.0) was −47% and the “Percent Growth” value ([3]; Log10 Concentration −6.0) was 75%. For the same molecule, the “Percent Growth” value ([3]; Log10 Concentration −7.0) was 93%, the “Percent Growth” value ([3]; Log10 Concentration −8.0) was 97% and the CC50 ([3]; read-out: LC50) was 11.3 µM. For the same molecule, the GI50 [4] was 7.61 µM, the TGI [4] was 20.9 µM and the “Percent Growth” value ([4]; Log10 Concentration −4.0) was −95%. The “Percent Growth” value ([4]; Log10 Concentration −5.0) was 45%, the “Percent Growth” value ([4]; Log10 Concentration −6.0) was 88% and the “Percent Growth” value ([4]; Log10 Concentration −7.0) was 84%. The “Percent Growth” value ([4]; Log10 Concentration −8.0) was 86%, the CC50 ([4]; read-out: LC50) was 47.7 µM and the TGI [5] was 1.8 µM. The “Percent Growth” value ([5]; Log10 Concentration −4.0) was −42%, the “Percent Growth” value ([5]; Log10 Concentration −5.0) was −69% and the “Percent Growth” value ([5]; Log10 Concentration −6.0) was 24%. The “Percent Growth” value ([5]; Log10 Concentration −7.0) was 87%, the “Percent Growth” value ([5]; Log10 Concentration −8.0) was 92% and the GI50 [6] was 1510 nM. For the same molecule, the TGI [6] was 4.17 µM, the “Percent Growth” value ([6]; Log10 Concentration −4.0) was −32% and the “Percent Growth” value ([6]; Log10 Concentration −5.0) was −43%. For the same molecule, the “Percent Growth” value ([6]; Log10 Concentration −6.0) was 70%, the “Percent Growth” value ([6]; Log10 Concentration −7.0) was 93% and the “Percent Growth” value ([6]; Log10 Concentration −8.0) was 95%. For the same molecule, the CC50 ([6]; read-out: LC50) was > 100 µM, the GI50 [7] was 693 nM and the TGI [7] was 2.01 µM. For the same molecule, the “Percent Growth” value ([7]; Log10 Concentration −4.0) was −96%, the “Percent Growth” value ([7]; Log10 Concentration −5.0) was −93% and the “Percent Growth” value ([7]; Log10 Concentration −6.0) was 40%. The “Percent Growth” value ([7]; Log10 Concentration −7.0) was 101%, the “Percent Growth” value ([7]; Log10 Concentration −8.0) was 101% and the CC50 ([7]; read-out: LC50) was 4.76 µM. For the same molecule, the GI50 [8] was 12.7 µM, the TGI [8] was 25.3 µM and the “Percent Growth” value ([8]; Log10 Concentration −4.0) was −100%. The “Percent Growth” value ([8]; Log10 Concentration −5.0) was 67%, the “Percent Growth” value ([8]; Log10 Concentration −6.0) was 107% and the “Percent Growth” value ([8]; Log10 Concentration −7.0) was 102%. The “Percent Growth” value ([8]; Log10 Concentration −8.0) was 98%, the CC50 ([8]; read-out: LC50) was 50.4 µM and the GI50 [9] was 287 nM. For the same molecule, the TGI [9] was 1.06 µM, the “Percent Growth” value ([9]; Log10 Concentration −4.0) was −92% and the “Percent Growth” value ([9]; Log10 Concentration −5.0) was −76%. The “Percent Growth” value ([9]; Log10 Concentration −6.0) was 2%, the “Percent Growth” value ([9]; Log10 Concentration −7.0) was 91% and the “Percent Growth” value ([9]; Log10 Concentration −8.0) was 91%. The GI50 [10] was 12.6 µM, the TGI [10] was 25.8 µM and the “Percent Growth” value ([10]; Log10 Concentration −4.0) was −94%. The “Percent Growth” value ([10]; Log10 Concentration −5.0) was 66%, the “Percent Growth” value ([10]; Log10 Concentration −6.0) was 104% and the “Percent Growth” value ([10]; Log10 Concentration −7.0) was 100%. The “Percent Growth” value ([10]; Log10 Concentration −8.0) was 100%, the CC50 ([10]; read-out: LC50) was 52.9 µM and the GI50 [11] was 4.61 µM. For the same molecule, the TGI [11] was 18 µM, the “Percent Growth” value ([11]; Log10 Concentration −4.0) was −71% and the “Percent Growth” value ([11]; Log10 Concentration −5.0) was 24%. For the same molecule, the “Percent Growth” value ([11]; Log10 Concentration −6.0) was 101%, the “Percent Growth” value ([11]; Log10 Concentration −7.0) was 103% and the “Percent Growth” value ([11]; Log10 Concentration −8.0) was 102%. The CC50 ([11]; read-out: LC50) was 60.7 µM, the GI50 [12] was 167 nM and the TGI [12] was 375 nM. For the same molecule, the “Percent Growth” value ([12]; Log10 Concentration −4.0) was −71%, the “Percent Growth” value ([12]; Log10 Concentration −5.0) was −75% and the “Percent Growth” value ([12]; Log10 Concentration −6.0) was −60%. The “Percent Growth” value ([12]; Log10 Concentration −7.0) was 82%, the “Percent Growth” value ([12]; Log10 Concentration −8.0) was 95% and the CC50 ([12]; read-out: LC50) was 845 nM.
